This is an account of results in publication PMC11859825, “Discovery of Sphingosine Kinase Inhibition by Modified Quinoline-5,8-Diones” (Pharmaceuticals, 2025).

For orientation: Ki means the dissociation constant of the complex between target and ligand, obtained from inhibition or displacement. For orientation: IC50 means the midpoint of a concentration-inhibition curve. By inhibition is commonly meant the relative decrease from the control value, in per cent. One may read the GI50 as the concentration that inhibits growth by half.

Test [1] relates to SphK2. The following applies: cited from earlier work.
Test [2] has as its target SphK1. The following applies: cited from earlier work.
The test system of test [3] is A498 kidney adenocarcinoma cells. Also on record: method as in PMID 22970244. To be noted: read-out: EC50, reduced proliferation; cited from earlier work.
In test [4] the target is recombinant human SphK1 (Homo sapiens, UniProt Q9NYA1). The experiment in a line: Fluorometric NBD-sphingosine sphingosine kinase inhibition assay, SphK1. The following applies: for IC50: IC50 against SphK1; for Selectivity between SphK1 and SphK2 (in words): single-concentration screen, SphK1 versus SphK2.
recombinant human SphK1, sequence (Q9NYA1 whole entry): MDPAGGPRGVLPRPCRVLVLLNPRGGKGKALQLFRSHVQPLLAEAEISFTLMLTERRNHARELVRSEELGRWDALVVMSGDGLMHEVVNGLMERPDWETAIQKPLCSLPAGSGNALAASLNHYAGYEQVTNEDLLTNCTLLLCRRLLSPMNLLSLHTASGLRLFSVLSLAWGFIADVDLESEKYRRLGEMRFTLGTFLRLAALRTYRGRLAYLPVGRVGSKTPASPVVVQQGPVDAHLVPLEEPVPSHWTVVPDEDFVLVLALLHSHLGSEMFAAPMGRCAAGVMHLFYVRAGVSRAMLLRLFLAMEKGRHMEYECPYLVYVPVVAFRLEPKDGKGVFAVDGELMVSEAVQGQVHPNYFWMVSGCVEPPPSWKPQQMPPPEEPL
Protocol: (§1) The fluorescence-based assay involved incubating the quinoline-5,8-diones with SphK isoforms individually (recombinant SphK1 and SphK2 in duplicate) [41].
(§2) The relevant enzymes and inhibitors were incubated in total reaction volumes of 100 µL with 10 µM NBD-sphingosine, 500 µM 4-deoxypyridoxine and 1 mM Mg-ATP in assay buffer (100 mM Tris/HCl (pH 7.4), 150 mM NaCl, 2 mM Na3VO4 and 10 mM NaF) for 30 min at 37 °C. A reaction mixture containing no test SphK inhibitor served as the positive control, while a reaction mixture containing no Mg-ATP served as the negative control. Post-incubation, 100 µL of potassium phosphate buffer, pH 8.5, was added to each Eppendorf, followed by 500 µL of 2:1 Chloroform/Methanol. After brief mixing with a vortex, phases were separated by centrifugation at 2000 rpm for 5 min. […] Data are expressed as mean SD from a minimum of 2 independent experiments. […] From this, the IC50 values of several test inhibitors were calculated.
The subject of test [5] is NCI-60 cell line panel. The experiment in a line: NCI60 one-dose anticancer screen. The class given is cell-based, human. To be noted: 10 μM, mean growth percentage across 60 cell lines. As to the method: A preliminary anticancer study was conducted through the National Cancer Institute 60 human tumour cell line panel (NCI60) on a representative selection of the aryl-ether quinoline-5,8-diones (Table 2). […].
One-dose study: Tested compounds were initially solubilised in DMSO, diluted into RPMI 1640 and 5% fetal bovine serum/L-glutamine and added to 96-well plates containing cell lines previously cultured for 24 h. After 48 h of incubation, the media were removed, and the cells were fixed and stained with sulforhodamine B to determine overall percent growth/total protein content. Unbound dye was removed with five washes of 1% acetic acid, and the plates were allowed to air dry. The dye was then resolubilised in Tris buffer, and the colourimetric absorbance was measured (515 nm). Growth inhibition was measured relative to the response generated from proliferating cells cultured under identical conditions for 48 h. Data from one-dose experiments pertain to the percentage growth at 10 μM [60, 61].

The target in test [6] is T1, recombinant human SphK2 (Homo sapiens, UniProt Q9NRA0).
T1 sequence (Q9NRA0 1-654): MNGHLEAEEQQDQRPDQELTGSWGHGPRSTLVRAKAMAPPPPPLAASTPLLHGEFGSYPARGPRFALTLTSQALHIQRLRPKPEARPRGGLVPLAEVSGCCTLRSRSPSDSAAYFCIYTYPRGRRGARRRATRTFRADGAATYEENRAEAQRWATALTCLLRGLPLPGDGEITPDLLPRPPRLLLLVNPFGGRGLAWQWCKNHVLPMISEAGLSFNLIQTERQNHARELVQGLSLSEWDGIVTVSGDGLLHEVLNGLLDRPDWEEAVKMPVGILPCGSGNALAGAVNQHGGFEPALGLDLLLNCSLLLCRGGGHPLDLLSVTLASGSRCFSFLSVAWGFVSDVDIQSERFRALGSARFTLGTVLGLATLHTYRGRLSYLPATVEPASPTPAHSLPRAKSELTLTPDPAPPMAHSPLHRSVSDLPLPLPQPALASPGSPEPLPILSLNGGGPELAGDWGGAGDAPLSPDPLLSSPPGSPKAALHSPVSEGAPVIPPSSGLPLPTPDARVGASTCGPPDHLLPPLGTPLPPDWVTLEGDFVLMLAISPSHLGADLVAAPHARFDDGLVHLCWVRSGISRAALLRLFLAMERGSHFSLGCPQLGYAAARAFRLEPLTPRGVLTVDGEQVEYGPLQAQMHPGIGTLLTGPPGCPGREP
The experiment in a line: Fluorometric NBD-sphingosine sphingosine kinase inhibition assay, SphK2. The following applies: for IC50: IC50 against SphK2.
Protocol: as §1, §2

Test [7] has as its system head and neck squamous cell carcinoma (SCC) cells. Also on record: method as in PMID 29109864. The following applies: cited from earlier work.
Test [8] deals with 60 cell lines (NCI). Also on record: method as in NCI cancer-screening platform (NSC796101). The following applies: ref NCI cancer-screening platform (NSC796101); read-out: Mean GI50 across 60 cell lines; cited from earlier work.
Setting [9] is: read-out: SphK1 inhibition, 10 μM compound.
[10] abbreviates: read-out: Spk1 % (inhibition), Average, 10 μM, Tables S3-S5.
Where [11] appears, read: read-out: Spk1 % (inhibition), replicate A, 10 μM, Tables S3-S5.
[12] abbreviates: read-out: Spk1 % (inhibition), replicate B, 10 μM, Tables S3-S5.
The mark [13] stands for this setting: read-out: SphK2 inhibition, 10 μM compound.
Setting [14] is: read-out: Spk2 % (inhibition), Average, 10 μM, Tables S3-S5.
The mark [15] stands for this setting: read-out: Spk2 % (inhibition), replicate A, 10 μM, Tables S3-S5.
[16] abbreviates: read-out: Spk2 % (inhibition), replicate B, 10 μM, Tables S3-S5.

Several values for one entry are separate records, joined by “and”; a condition that tells them apart may be missing. Equal entries are not always repeated. Where two headings read alike, the source gives them in different places.

For `CC(=O)N(C1=C(Cl)C(=O)c2ccccc2C1=O)C1CCCCC1` [CB5468139], in test [1], the “Concentration up to which SphK2 activity is not affected” value was greater than 100 µM. In addition, the Ki in test [2] is 0.3 µM. For the same compound, the EC50 in test [3] is 10 to 15 µM.
For `COc1ccc(OC2=CC(=O)c3ccc(C)nc3C2=O)cc1` [Compound 4], the IC50 in test [4] is 30.2 µM and 30 µM; in test [6], 8.47 µM and 8 µM. In addition, the inhibition at 10 µM in test [4] (setting [9]) was 69%; in test [4] (setting [10]), 69.2%; in test [4] (setting [11]) it was 58.5%; in test [4] (setting [12]) it was 77.5%; in test [6] (setting [13]), 37%; in test [6] (setting [14]) it was 36.8%. The inhibition at 10 µM in test [6] (setting [15]) was found to be 37.5%; in test [6] (setting [16]) it was 36.3%. In addition, in test [4], the “Selectivity between SphK1 and SphK2 (in words)” value is “a level of selectivity for SphK1”. In addition, in test [5], the “Mean Growth (%)” value amounted to 84.4%.
Consider `COc1cccc(OC2=CC(=O)c3ccc(C)nc3C2=O)c1` [Compound 5, 7-(3-Methoxyphenoxy)-2-methylquinoline-5,8-dione], for which the inhibition at 10 µM in test [4] (setting [10]) came to 39.9%; in test [4] (setting [11]), 37.8%; in test [4] (setting [12]), 41.5%; in test [6] (setting [14]) it was 49.7%; in test [6] (setting [15]), 50.1%; in test [6] (setting [16]), 49.3%. Moreover, the “Mean Growth (%)” value in test [5] is listed as 88.5%.
Consider `Cc1ccc2c(n1)C(=O)C(Oc1ccc(F)cc1)=CC2=O` [Compound 6, 7-(4-Fluorophenoxy)-2-methylquinoline-5,8-dione], for which the inhibition at 10 µM in test [4] (setting [9]) is no less than 54%; in test [4] (setting [10]), 54.2%; in test [4] (setting [11]), 53.4%; in test [4] (setting [12]) it was 54.8%; in test [6] (setting [13]), no less than 56%; in test [6] (setting [14]), 59.6%. Also, the inhibition at 10 µM is 58.6% in test [6] (setting [15]) and 60.4% in test [6] (setting [16]). Also, in test [5], the “Mean Growth (%)” value was 88.2%.
On to `Cc1ccc2c(n1)C(=O)C(Oc1ccc(C#N)cc1)=CC2=O` [Compound 7, 2-Methyl-7-(4-(cyano)phenoxy)quinoline-5,8-dione], for which the inhibition at 10 µM was no less than 54% in test [4] (setting [9]); 54.7% in test [4] (setting [10]); 54.1% in test [4] (setting [11]); 55.2% in test [4] (setting [12]); no less than 56% in test [6] (setting [13]); 55.6% in test [6] (setting [14]). The values for the inhibition at 10 µM in test [6] (setting [15]) and in test [6] (setting [16]) were 53.6% and 57.2%, respectively. The “Mean Growth (%)” value in test [5] worked out at 97.3%.
In the case of `Cc1ccc2c(n1)C(=O)C(Oc1ccc(Br)cc1)=CC2=O` [Compound 12, 7-(4-Bromophenoxy)-2-methylquinoline-5,8-dione], the “Mean Growth (%)” value in test [5] was 90.5%.
In the case of `O=Cc1ccc2c(n1)C(=O)C(Oc1ccc(Br)cc1)=CC2=O` [Compound 19, 7-(4-Bromophenoxy)-5,8-dioxo-5,8-dihydroquinoline-2-carbaldehyde], the inhibition at 10 µM in test [4] (setting [10]) was -0.9%; in test [4] (setting [11]), -4.1%; in test [4] (setting [12]) it was 1.8%; in test [6] (setting [14]), 3.2%; in test [6] (setting [15]) it was 6.8%; in test [6] (setting [16]) it was 0.3%.
Take `COc1ccc(OC2=CC(=O)c3ccc(CN4CCC[C@@H]4CO)nc3C2=O)cc1` [Compound 20, (R)-2-((2-(Hydroxymethyl)pyrrolidin-1-yl)methyl)-7-(4-methoxyphenoxy)quinoline-5,8-dione]: the IC50 in test [4] was 42.3 µM and 42 µM; in test [6], 13.2 µM and 13 µM. Moreover, the inhibition at 10 µM in test [4] (setting [9]) came to 63%; in test [4] (setting [10]), 63.1%; in test [4] (setting [11]), 61.7%; in test [4] (setting [12]) it was 64.3%; in test [6] (setting [13]), 82%; in test [6] (setting [14]), 81.6%. Besides, the inhibition at 10 µM in test [6] (setting [15]) came out at 81.2%; in test [6] (setting [16]), 81.9%.
As to `O=C1C=C(Oc2ccc(F)cc2)C(=O)c2nc(CN3CCC[C@@H]3CO)ccc21` [Compound 21, (R)-7-(4-Fluorophenoxy)-2-((2-(hydroxymethyl)pyrrolidin-1-yl)methyl)quinoline-5,8-dione], the inhibition at 10 µM in test [4] (setting [9]) came out at 70%; in test [4] (setting [10]) it was 69.7%; in test [4] (setting [11]) it was 62%; in test [4] (setting [12]), 75.8%; in test [6] (setting [13]), 43%; in test [6] (setting [14]), 43.2%. Moreover, in test [6] (setting [16]), the inhibition at 10 µM was 43.4%.
As for `Cc1cc(CS(=O)(=O)c2ccccc2)cc(OCc2ccc(CN3CCC[C@@H]3CO)cc2)c1` [PF-543], the “Necrotic SCC cells induced by PF-543” value in test [7] (with addition of ROS scavenger N-acetyl-L-cysteine) is recorded as 26.3%; in test [7] (without ROS scavenger), 48.6%. The inhibition at 0.1 µM in test [6] (read-out: Spk2 % Inhibition) was 0.7%.
Take `O=C(NCc1ccncc1)C12CC3CC(C1)CC(c1ccc(Cl)cc1)(C3)C2` [opaganib, reference compound]: the inhibition at 10 µM was -8.6% in test [4] (read-out: Spk1 % Inhibition, 10uM, Table S2 assay validation); 36% in test [6] (setting [13]); 35.5% in test [6] (read-out: Spk2 % Inhibition, 10uM, Table S2 assay validation). The “Selectivity between SphK1 and SphK2 (in words)” value in test [4] is “high SphK2 selectivity”. In test [1] (ref 20-24 (b6), 19, 22), the Ki was 9.8 µM. In addition, the GI50 in test [8] is 11.5 µM.
